Assay results taken from paper PMC12775434, “Ultra-large virtual screening unveils potent agonists of the neuromodulatory orphan receptor GPR139” (Nature Communications, 2025).
“And” between values parts separate entries of the source, which are not always exact repeats. Equal values may be shown once. Read-outs that look alike come from different tables or passages of the source.

What was measured:
Assay type in all cases: cell-based
[1] = molecular target: T1, GPR139 (Homo sapiens, UniProt Q6DWJ6); test: Ca2+ mobilization assay, agonist mode, stable GPR139-CHOk1 cell line; details: for Emax: normalized to Lundbeck Cmp 1a, read-out: Emax (%) Ca2+
T1 sequence (Q6DWJ6 1-353): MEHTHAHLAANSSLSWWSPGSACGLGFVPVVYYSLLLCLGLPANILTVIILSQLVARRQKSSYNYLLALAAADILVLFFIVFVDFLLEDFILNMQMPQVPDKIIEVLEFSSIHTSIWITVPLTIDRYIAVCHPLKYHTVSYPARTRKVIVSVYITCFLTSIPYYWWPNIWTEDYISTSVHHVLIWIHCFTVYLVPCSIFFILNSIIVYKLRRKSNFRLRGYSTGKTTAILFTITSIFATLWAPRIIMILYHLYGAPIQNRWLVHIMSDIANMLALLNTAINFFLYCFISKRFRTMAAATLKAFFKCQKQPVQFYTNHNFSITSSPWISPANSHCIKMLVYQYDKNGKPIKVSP
Procedure, shortened: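 Agonist activity of compounds is assessed in stably transfected CHO-K1 cells using the calcium dye Fluo-4 at 37 °C in HEPES-buffered HBSS (pH 7.4). Efficacy is expressed relative to the reference agonist Lundbeck Cmp 1a, set as 100%.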

[2] = molecular target: T2, human muscarinic acetylcholine M1 receptor (M1R) (Homo sapiens, UniProt P11229); test: Ca2+ mobilization counter-screen in M1R-CHOk1 cells; details: individual replicates (Supplementary Figure 5)
T2 sequence (P11229 1-460): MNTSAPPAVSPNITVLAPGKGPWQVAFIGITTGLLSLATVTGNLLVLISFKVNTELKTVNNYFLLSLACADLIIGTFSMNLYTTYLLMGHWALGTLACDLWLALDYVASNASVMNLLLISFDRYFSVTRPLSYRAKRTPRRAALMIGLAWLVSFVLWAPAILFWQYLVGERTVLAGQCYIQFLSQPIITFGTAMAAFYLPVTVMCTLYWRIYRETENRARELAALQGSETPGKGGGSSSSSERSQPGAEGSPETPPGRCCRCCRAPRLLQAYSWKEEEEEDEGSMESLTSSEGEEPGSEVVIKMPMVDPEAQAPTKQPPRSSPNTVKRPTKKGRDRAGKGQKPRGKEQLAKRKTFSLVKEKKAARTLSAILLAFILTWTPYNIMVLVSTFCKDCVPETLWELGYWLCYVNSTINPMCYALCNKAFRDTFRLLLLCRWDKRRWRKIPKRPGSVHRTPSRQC
Procedure, shortened: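 M1R-CHOk1 cells seeded 20–24 h, loaded with 2 µM Fluo-4 AM (2.5 mM probenecid, 0.01% Pluronic F-68) for 1 h at 37 °C in HBSS/20 mM HEPES pH 7.4. Compounds added after baseline (≤0.3% DMSO); calcium fluorescence read at 37 °C, ex 485/em 525 nm.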

[3] = molecular target: T1, GPR139; test: Ca2+ mobilization assay, antagonist mode (EC80 800 nM Lundbeck Cmp 1a after 20 min preincubation), GPR139-CHOk1; details: individual replicates (Supplementary Figure 4)
Procedure, shortened: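 Fluo-4-loaded GPR139-CHOk1 cells in HEPES-buffered HBSS (pH 7.4, 2.5 mM probenecid) given test compounds at 10 µM, then after 20 min challenged with 800 nM Lundbeck Cmp 1a (EC80). Calcium fluorescence read at 37 °C, 485/525 nm.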

[4] = Agonist mode, individual replicates (Supplementary Figure 4)
[5] = Supplementary Table 2, mean ± SEM, read-out: pEC50 Ca2+ (converted)
[6] = Supplementary Table 2, mean ± SEM
[7] = log [Compound] M = -4.5, individual replicate columns
[8] = log [Compound] M = -5.0, individual replicate columns
[9] = log [Compound] M = -5.5, individual replicate columns
[10] = log [Compound] M = -6.0, individual replicate columns
[11] = log [Compound] M = -6.5, individual replicate columns
[12] = log [Compound] M = -7.0, individual replicate columns
[13] = log [Compound] M = -7.5, individual replicate columns
[14] = log [Compound] M = -8.0, individual replicate columns
[15] = log [Compound] M = -8.5, individual replicate columns
[16] = log [Compound] M = -9.0, individual replicate columns

| SMILES | Ca2+ signal (% of Cmp 1a) [1, 4] | fold decrease in potency relative to parent compound 1 ([1]; Ca2+ mobilization EC50) | EC50 [1, 5] [nM] | Emax [1, 6] [%] | Ca2+ signal (% of Cmp 1a) [1, 7] | Ca2+ signal (% of Cmp 1a) [1, 8] | Ca2+ signal (% of Cmp 1a) [1, 9] | Ca2+ signal (% of Cmp 1a) [1, 10] | Ca2+ signal (% of Cmp 1a) [1, 11] | Ca2+ signal (% of Cmp 1a) [1, 12] | Ca2+ signal (% of Cmp 1a) [1, 13] | Ca2+ signal (% of Cmp 1a) [1, 14] | Ca2+ signal (% of Cmp 1a) [1, 15] | Ca2+ signal (% of Cmp 1a) [1, 16] | Ca2+ signal (% of Carbachol) [2] | Ca2+ signal (% of Cmp 1a) [3] | fold decrease in potency on substitution of the central oxadiazole ring ([1]; Ca2+ mobilization) [fold] | EC50 ([1]; GPR139-CHOk1, read-out: EC50, Ca2+ mobilization) [nM] | change in potency with larger substituents on the thiophene ring ([1]; Ca2+ mobilization) |
| --- | --- | --- | --- | --- | --- | --- | --- | --- | --- | --- | --- | --- | --- | --- | --- | --- | --- | --- | --- |
| Cc1nc(-c2nc(CC(=O)NC(C)c3ccccc3)no2)cs1 (stereo not drawn) [Compound 1.15, CC(C1=CC=CC=C1)NC(CC2=NOC(C3=CSC(C)=N3)=N2)=O] | 96 % of Cmp 1a and 108 % of Cmp 1a and 104 % of Cmp 1a | 3- to 25 fold | 501 | 105 ± 4 | 94 % of Cmp 1a and 99 % of Cmp 1a and 118 % of Cmp 1a and 102 % of Cmp 1a | 101 % of Cmp 1a and 90 % of Cmp 1a and 112 % of Cmp 1a and 100 % of Cmp 1a | 104 % of Cmp 1a and 84 % of Cmp 1a and 109 % of Cmp 1a and 112 % of Cmp 1a | 70 % of Cmp 1a and 62 % of Cmp 1a and 81 % of Cmp 1a and 93 % of Cmp 1a | 46 % of Cmp 1a (2×) and 31 % of Cmp 1a and 57 % of Cmp 1a | 12 % of Cmp 1a and 11 % of Cmp 1a and 21 % of Cmp 1a and 17 % of Cmp 1a | 8 % of Cmp 1a and -0.333 % of Cmp 1a and 13 % of Cmp 1a and 5.67 % of Cmp 1a | 1.67 % of Cmp 1a and -3.67 % of Cmp 1a and 8 % of Cmp 1a and -2 % of Cmp 1a | 1 % of Cmp 1a and 15 % of Cmp 1a and 11 % of Cmp 1a and 10 % of Cmp 1a | 0.667 % of Cmp 1a and 7 % of Cmp 1a (2×) and 12 % of Cmp 1a | 3 % of Carbachol and 14 % of Carbachol | 7 % of Cmp 1a and 2.33 % of Cmp 1a |  |  |  |
| CC(NC(=O)Cn1cc(-c2cccs2)nn1)c1ccccc1 (stereo not drawn) [Compound 1.38, CC(NC(=O)CN1C=C(N=N1)C2=CC=CS2)C=3C=CC=CC3] | 54 % of Cmp 1a and 77 % of Cmp 1a and 68 % of Cmp 1a |  |  | 82 ± 7 | 92 % of Cmp 1a (2×) and 78 % of Cmp 1a and 67 % of Cmp 1a | 90 % of Cmp 1a and 69 % of Cmp 1a and 85 % of Cmp 1a and 60 % of Cmp 1a | 88 % of Cmp 1a and 51 % of Cmp 1a and 91 % of Cmp 1a and 56 % of Cmp 1a | 56 % of Cmp 1a and 17 % of Cmp 1a and 49 % of Cmp 1a and 18 % of Cmp 1a | 22 % of Cmp 1a and -6 % of Cmp 1a and 11 % of Cmp 1a and 3.64 % of Cmp 1a | 7.61 % of Cmp 1a and -2.54 % of Cmp 1a and 1.82 % of Cmp 1a and 1.21 % of Cmp 1a | 0.854 % of Cmp 1a and 4 % of Cmp 1a and -4.35 % of Cmp 1a and 9 % of Cmp 1a | -1.25 % of Cmp 1a and 0.0327 % of Cmp 1a and -3 % of Cmp 1a and 1.5 % of Cmp 1a | 1 % of Cmp 1a and 0.912 % of Cmp 1a and 6 % of Cmp 1a and 0.231 % of Cmp 1a | 5.27 % of Cmp 1a and -0.036 % of Cmp 1a and 7.38 % of Cmp 1a and 4.27 % of Cmp 1a | 0.152 % of Carbachol and 1.48 % of Carbachol and 2 % of Carbachol | 22 % of Cmp 1a and 19 % of Cmp 1a | 7 | 1300 |  |
| CCc1ccc(-c2nc(CC(=O)NC(C)c3ccccc3)no2)s1 (stereo not drawn) [Compound 1.12, CCC1=CC=C(C2=NC(CC(NC(C3=CC=CC=C3)C)=O)=NO2)S1] | 86 % of Cmp 1a and 84 % of Cmp 1a and 95 % of Cmp 1a |  | 398 | 93 ± 4 | 90 % of Cmp 1a and 89 % of Cmp 1a and 81 % of Cmp 1a and 78 % of Cmp 1a | 105 % of Cmp 1a and 80 % of Cmp 1a and 63 % of Cmp 1a and 94 % of Cmp 1a | 111 % of Cmp 1a (2×) and 80 % of Cmp 1a and 55 % of Cmp 1a | 66 % of Cmp 1a and 61 % of Cmp 1a and 43 % of Cmp 1a and 78 % of Cmp 1a | 49 % of Cmp 1a and 48 % of Cmp 1a and 28 % of Cmp 1a and 56 % of Cmp 1a | 21 % of Cmp 1a and 33 % of Cmp 1a and 9 % of Cmp 1a and 38 % of Cmp 1a | 6 % of Cmp 1a and 10 % of Cmp 1a and 3.55 % of Cmp 1a and 24 % of Cmp 1a | -0.628 % of Cmp 1a and 0.281 % of Cmp 1a and 16 % of Cmp 1a and 5 % of Cmp 1a | -1.24 % of Cmp 1a and 1.81 % of Cmp 1a and 5 % of Cmp 1a and 9 % of Cmp 1a | 6.67 % of Cmp 1a and -5 % of Cmp 1a and 1.66 % of Cmp 1a and 6 % of Cmp 1a | 8 % of Carbachol and 5.44 % of Carbachol and 4 % of Carbachol | 15 % of Cmp 1a and 8 % of Cmp 1a and -3.33 % of Cmp 1a |  |  | three-fold reduction to a complete loss of activity |
